Laboratory results taken from ChEMBL document CHEMBL1201861, “Genomics of Drug Sensitity in Cancer screening data, Wellcome Trust Sanger Institute”.
Counter-ions that a name gives are not always drawn.

Assays:
Test in all cases: cells
[1] = tested on: MDA-MB-157; format: functional, cell-based, Homo sapiens
Description: SANGER: Inhibition of human MDA-MB-157 cell growth in a cell viability assay.

[2] = tested on: M14; format: functional, cell-based, Homo sapiens;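 also: growth inhibition of M14 cells, read out with a cell viability assay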
Description: SANGER: Inhibition of human M14 cell growth in a cell viability assay.

[3] = tested on: WM-115; format: functional, cell-based, Homo sapiens
Description: SANGER: Inhibition of human WM-115 cell growth in a cell viability assay.

[4] = tested on: LU-165; format: functional, cell-based, Homo sapiens
Description: SANGER: Inhibition of human LU-165 cell growth in a cell viability assay.

[5] = tested on: KYSE-520 cell line; format: functional, cell-based, Homo sapiens;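 also: growth inhibition of human KYSE-520 cells, read out with a viability assay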
Description: SANGER: Inhibition of human KYSE-520 cell growth in a cell viability assay.

[6] = tested on: KYSE-410; format: functional, cell-based, Homo sapiens;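 also: growth inhibition of KYSE-410 cells, measured through a cell viability readout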
Description: SANGER: Inhibition of human KYSE-410 cell growth in a cell viability assay.

[7] = tested on: NCI-H1963; format: functional, cell-based, Homo sapiens;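 also: cell growth inhibition of the human line, determined with a cell viability assay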
Description: SANGER: Inhibition of human NCI-H1963 cell growth in a cell viability assay.

[8] = tested on: NCI-H2030; format: functional, cell-based, Homo sapiens;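 also: growth inhibition of human NCI-H2030 cells, read out by a cell viability assay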
Description: SANGER: Inhibition of human NCI-H2030 cell growth in a cell viability assay.

[9] = tested on: PA-1; format: functional, cell-based, Homo sapiens;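 also: IC50 for suppression of PA-1 cell proliferation, determined with a cell viability read-out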
Description: SANGER: Inhibition of human PA-1 cell growth in a cell viability assay.

[10] = tested on: KYSE-510; format: functional, cell-based, Homo sapiens;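 also: cell viability readout used to measure how strongly growth of the cell line is suppressed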
Description: SANGER: Inhibition of human KYSE-510 cell growth in a cell viability assay.

[11] = tested on: IGROV-1; format: functional, cell-based, Homo sapiens;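 also: reduction of IGROV-1 cell growth, read out with a viability assay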
Description: SANGER: Inhibition of human IGROV-1 cell growth in a cell viability assay.

[12] = tested on: HT-1080; format: functional, cell-based, Homo sapiens
Description: SANGER: Inhibition of human HT-1080 cell growth in a cell viability assay.

[13] = tested on: AU565; format: functional, cell-based, Homo sapiens;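 also: cell viability assay measuring growth inhibition of human AU565 cells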
Description: SANGER: Inhibition of human AU565 cell growth in a cell viability assay.

[14] = tested on: SAOS-2; format: functional, cell-based, Homo sapiens;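 also: growth inhibition of human Saos-2 cells determined by a cell viability assay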
Description: SANGER: Inhibition of human Saos-2 cell growth in a cell viability assay.

[15] = tested on: IGR-1; format: functional, cell-based, Homo sapiens;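 also: growth inhibition of human IGR-1 cells, read out with a cell viability assay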
Description: SANGER: Inhibition of human IGR-1 cell growth in a cell viability assay.

[16] = tested on: COLO-679; format: functional, cell-based, Homo sapiens
Description: SANGER: Inhibition of human COLO-679 cell growth in a cell viability assay.

[17] = tested on: SK-N-AS; format: functional, cell-based, Homo sapiens;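 also: growth inhibition of human SK-N-AS cells, measured with a cell viability assay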
Description: SANGER: Inhibition of human SK-N-AS cell growth in a cell viability assay.

[18] = tested on: NCI-H2141; format: functional, cell-based, Homo sapiens;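 also: growth inhibition of human NCI-H2141 cells, read out with a cell viability assay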
Description: SANGER: Inhibition of human NCI-H2141 cell growth in a cell viability assay.

[19] = tested on: MKN-28; format: functional, cell-based, Homo sapiens;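 also: cell viability assay read-out, IC50 reflects suppression of growth of human MKN-28 cells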
Description: SANGER: Inhibition of human MKN28 cell growth in a cell viability assay.

[20] = tested on: NCI-H748; format: functional, cell-based, Homo sapiens;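 also: growth inhibition of NCI-H748 cells, measured by a cell viability assay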
Description: SANGER: Inhibition of human NCI-H748 cell growth in a cell viability assay.

[21] = tested on: SK-MEL3; format: functional, cell-based, Homo sapiens, SK-MEL-3;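 also: growth inhibition of human SK-MEL-3 cells, read out with a cell viability assay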
Description: SANGER: Inhibition of human SK-MEL-3 cell growth in a cell viability assay.

[22] = tested on: LU-99A; format: functional, cell-based, Homo sapiens;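 also: growth inhibition of LU-99A cells, read out with a cell viability assay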
Description: SANGER: Inhibition of human LU-99A cell growth in a cell viability assay.

[23] = tested on: CAL-54; format: functional, cell-based, Homo sapiens;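 also: growth inhibition of CAL-54 cells, read out by a viability measurement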
Description: SANGER: Inhibition of human CAL-54 cell growth in a cell viability assay.

[24] = tested on: LOUCY; format: functional, cell-based, Homo sapiens;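 also: growth inhibition of human LOUCY cells, read out with a cell viability assay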
Description: SANGER: Inhibition of human LOUCY cell growth in a cell viability assay.

[25] = tested on: DoTc2-4510; format: functional, cell-based, Homo sapiens
[26] = tested on: Panc1005; format: functional, cell-based, Homo sapiens;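 also: growth inhibition of human PANC-10-05 cells, measured by a cell viability assay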
Description: SANGER: Inhibition of human PANC-10-05 cell growth in a cell viability assay.

[27] = tested on: U-118-MG; format: functional, cell-based, Homo sapiens
Description: SANGER: Inhibition of human U-118-MG cell growth in a cell viability assay.

[28] = tested on: NUGC-3; format: functional, cell-based, Homo sapiens;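 also: growth inhibition of human NUGC-3 cells, read out with a cell viability assay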
Description: SANGER: Inhibition of human NUGC-3 cell growth in a cell viability assay.

[29] = tested on: LoVo; format: functional, cell-based, Homo sapiens;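 also: growth inhibition of human LoVo cells, read out with a cell viability assay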
Description: SANGER: Inhibition of human LoVo cell growth in a cell viability assay.

[30] = tested on: CAL-148; format: functional, cell-based, Homo sapiens
Description: SANGER: Inhibition of human CAL-148 cell growth in a cell viability assay.

[31] = tested on: EB-3; format: functional, cell-based, Homo sapiens;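 also: human EB-3 cells, growth inhibition read out via a cell viability assay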
Description: SANGER: Inhibition of human EB-3 cell growth in a cell viability assay.

[32] = tested on: SW1417; format: functional, cell-based, Homo sapiens;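 also: growth inhibition of human SW1417 cells, read out with a cell viability assay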
Description: SANGER: Inhibition of human SW1417 cell growth in a cell viability assay.

[33] = tested on: HCC1569; format: functional, cell-based, Homo sapiens;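 also: growth inhibition of human HCC1569 cells, read out with a cell viability assay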
Description: SANGER: Inhibition of human HCC1569 cell growth in a cell viability assay.

[34] = tested on: GDM-1; format: functional, cell-based, Homo sapiens;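 also: cell viability readout used to measure growth inhibition of human GDM-1 cells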
Description: SANGER: Inhibition of human GDM-1 cell growth in a cell viability assay.

[35] = tested on: SUP-T1; format: functional, cell-based, Homo sapiens;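 also: growth inhibition of human SUP-T1 cells, read out as cell viability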
Description: SANGER: Inhibition of human SUP-T1 cell growth in a cell viability assay.

[36] = tested on: EGI-1; format: functional, cell-based, Homo sapiens;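 also: cell viability readout used to gauge growth inhibition of EGI-1 cells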
Description: SANGER: Inhibition of human EGI-1 cell growth in a cell viability assay.

[37] = tested on: NCI-H596; format: functional, cell-based, Homo sapiens;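 also: growth inhibition of NCI-H596 cells, read out with a cell viability assay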
Description: SANGER: Inhibition of human NCI-H596 cell growth in a cell viability assay.

[38] = tested on: RPMI-7951; format: functional, cell-based, Homo sapiens
Description: SANGER: Inhibition of human RPMI-7951 cell growth in a cell viability assay.

[39] = tested on: KMS-12-PE; format: functional, cell-based, Homo sapiens;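 also: growth inhibition of human KMS-12-PE cells, measured with a cell viability assay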
Description: SANGER: Inhibition of human KMS-12-PE cell growth in a cell viability assay.

[40] = tested on: SCLC-21H; format: functional, cell-based, Homo sapiens;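 also: growth inhibition of cultured human SCLC-21H cells, read out with a cell viability assay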
Description: SANGER: Inhibition of human SCLC-21H cell growth in a cell viability assay.

[41] = tested on: A2058; format: functional, cell-based, Homo sapiens;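 also: reduction of A2058 cell growth, read out with a viability assay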
Description: SANGER: Inhibition of human A2058 cell growth in a cell viability assay.

[42] = tested on: G-361; format: functional, cell-based, Homo sapiens
[43] = tested on: NCI-H2052; format: functional, cell-based, Homo sapiens;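 also: growth inhibition of NCI-H2052 cells, read out with a cell viability assay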
Description: SANGER: Inhibition of human NCI-H2052 cell growth in a cell viability assay.

[44] = tested on: A-427; format: functional, cell-based, Homo sapiens;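 also: growth inhibition of human A-427 cells, read out by a cell viability assay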
Description: SANGER: Inhibition of human A427 cell growth in a cell viability assay.

[45] = tested on: DBTRG-05MG; format: functional, cell-based, Homo sapiens;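 also: cell viability assay measuring growth inhibition of human DBTRG-05MG cells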
Description: SANGER: Inhibition of human DBTRG-05MG cell growth in a cell viability assay.

[46] = tested on: SNU-423; format: functional, cell-based, Homo sapiens
Description: SANGER: Inhibition of human SNU-423 cell growth in a cell viability assay.

[47] = tested on: NCI-H2170; format: functional, cell-based, Homo sapiens;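 also: cell viability assay measuring growth inhibition of human NCI-H2170 cancer cells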
Description: SANGER: Inhibition of human NCI-H2170 cell growth in a cell viability assay.

Work on `COC1=CC(c2cc3ccccc3[nH]2)=N/C1=C\c1[nH]c(C)cc1C` [OBATOCLAX MESYLATE] yielded an IC50 ([1]; Homo sapiens, MDA-MB-157) of 0.823 µM, an IC50 ([2]; Homo sapiens, M14) of 0.46 µM and an IC50 ([3]; Homo sapiens, WM-115) of 4.51 µM. The IC50 ([4]; Homo sapiens, LU-165) was 5.99 µM, the IC50 ([5]; Homo sapiens, KYSE-520) was 0.483 µM and the IC50 ([6]; Homo sapiens, KYSE-410) was 0.098 µM. The IC50 ([7]; Homo sapiens, NCI-H1963) was 1.05 µM, the IC50 ([8]; Homo sapiens, NCI-H2030) was 0.227 µM and the IC50 ([9]; Homo sapiens, PA-1) was 0.0877 µM. For the same compound, the IC50 ([10]; Homo sapiens, KYSE-510) was < 0.0625 µM, the IC50 ([11]; Homo sapiens, IGROV-1) was < 0.0625 µM and the IC50 ([12]; Homo sapiens, HT-1080) was 0.511 µM. The IC50 ([13]; Homo sapiens, AU565) was 0.425 µM, the IC50 ([14]; Homo sapiens, SAOS-2) was 0.246 µM and the IC50 ([15]; Homo sapiens, IGR-1) was < 0.0625 µM. For the same compound, the IC50 ([16]; Homo sapiens, COLO-679) was < 0.0625 µM, the IC50 ([17]; Homo sapiens, SK-N-AS) was 1.05 µM and the IC50 ([18]; Homo sapiens, NCI-H2141) was 1.19 µM. For the same compound, the IC50 ([19]; Homo sapiens, MKN-28) was 0.177 µM, the IC50 ([20]; Homo sapiens, NCI-H748) was 10.6 µM and the IC50 ([21]; Homo sapiens, SK-MEL3) was < 0.0625 µM. The IC50 ([22]; Homo sapiens, LU-99A) was 0.784 µM, the IC50 ([23]; Homo sapiens, CAL-54) was 1.31 µM and the IC50 ([24]; Homo sapiens, LOUCY) was < 0.0625 µM. The IC50 ([25]; Homo sapiens, DoTc2-4510) was 0.0339 µM, the IC50 ([26]; Homo sapiens, Panc1005) was 0.115 µM and the IC50 ([27]; Homo sapiens, U-118-MG) was 0.409 µM. It also gave an IC50 ([28]; Homo sapiens, NUGC-3) of 0.0305 µM, an IC50 ([29]; Homo sapiens, LoVo) of 0.0872 µM and an IC50 ([30]; Homo sapiens, CAL-148) of 1.04 µM. For the same compound, the IC50 ([31]; Homo sapiens, EB-3) was 0.173 µM, the IC50 ([32]; Homo sapiens, SW1417) was < 0.0625 µM and the IC50 ([33]; Homo sapiens, HCC1569) was 0.018 µM. The IC50 ([34]; Homo sapiens, GDM-1) was 0.685 µM, the IC50 ([35]; Homo sapiens, SUP-T1) was 0.0295 µM and the IC50 ([36]; Homo sapiens, EGI-1) was 1.58 µM. For the same compound, the IC50 ([37]; Homo sapiens, NCI-H596) was 0.236 µM, the IC50 ([38]; Homo sapiens, RPMI-7951) was 0.51 µM and the IC50 ([39]; Homo sapiens, KMS-12-PE) was 5.35 µM. The IC50 ([40]; Homo sapiens, SCLC-21H) was 12.2 µM, the IC50 ([41]; Homo sapiens, A2058) was 0.107 µM and the IC50 ([42]; Homo sapiens, G-361) was < 0.0625 µM. For the same compound, the IC50 ([43]; Homo sapiens, NCI-H2052) was 0.567 µM, the IC50 ([44]; Homo sapiens, A-427) was 0.0851 µM and the IC50 ([45]; Homo sapiens, DBTRG-05MG) was 2.06 µM. The IC50 ([46]; Homo sapiens, SNU-423) was 0.129 µM and the IC50 ([47]; Homo sapiens, NCI-H2170) was 0.683 µM.

For BLEOMYCIN, the IC50 ([1]; mda-mb-157) was 307 µM, the IC50 ([2]; m14) was 3.22 µM and the IC50 ([3]; wm-115) was 7.09 µM. It also gave an IC50 ([4]; lu-165) of 41.8 µM, an IC50 ([5]; kyse-520) of 6.79 µM and an IC50 ([6]; kyse-410) of 8.15 µM. The IC50 ([7]; nci-h1963) was 193 µM, the IC50 ([8]; nci-h2030) was 5.22 µM and the IC50 ([9]; pa-1) was 2.02 µM. For the same compound, the IC50 ([10]; kyse-510) was 1.86 µM, the IC50 ([11]; igrov-1) was 0.145 µM and the IC50 ([12]; ht-1080) was 0.234 µM. For the same compound, the IC50 ([13]; au565) was 2.05 µM, the IC50 ([14]; saos-2) was 0.172 µM and the IC50 ([15]; igr-1) was 2.35 µM. The IC50 ([16]; colo-679) was 2.66 µM, the IC50 ([17]; sk-n-as) was 1950 µM and the IC50 ([18]; nci-h2141) was 36.1 µM. The IC50 ([19]; mkn-28) was 0.00108 µM, the IC50 ([20]; nci-h748) was 75.2 µM and the IC50 ([21]; sk-mel-3) was 22.2 µM. For the same compound, the IC50 ([22]; lu-99a) was 0.00422 µM, the IC50 ([23]; cal-54) was 0.191 µM and the IC50 ([24]; loucy) was 0.00993 µM. For the same compound, the IC50 ([25]; dotc2-4510) was 0.378 µM, the IC50 ([26]; panc1005) was 0.256 µM and the IC50 ([27]; u-118-mg) was 65.7 µM. The IC50 ([28]; nugc-3) was 1.13 µM, the IC50 ([29]; lovo) was 0.0712 µM and the IC50 ([30]; cal-148) was 4.6 µM. The IC50 ([31]; eb-3) was 21.8 µM, the IC50 ([32]; sw1417) was 249 µM and the IC50 ([33]; hcc1569) was 0.604 µM. For the same compound, the IC50 ([34]; gdm-1) was 0.228 µM, the IC50 ([35]; sup-t1) was 0.000251 µM and the IC50 ([36]; egi-1) was 0.772 µM. It also gave an IC50 ([37]; nci-h596) of 13.6 µM, an IC50 ([38]; rpmi-7951) of 1.24 µM and an IC50 ([39]; kms-12-pe) of 2530 µM. It also gave an IC50 ([40]; sclc-21h) of 577 µM, an IC50 ([41]; a2058) of 0.808 µM and an IC50 ([42]; g-361) of 0.0883 µM. It also gave an IC50 ([43]; nci-h2052) of 2.97 µM, an IC50 ([44]; a-427) of 0.000118 µM and an IC50 ([45]; dbtrg-05mg) of 5.67 µM. For the same compound, the IC50 ([46]; snu-423) was 0.867 µM and the IC50 ([47]; nci-h2170) was 0.162 µM.
